Data from patent publication US11040981B2, “Pyrrolotriazine compounds and methods of inhibiting TAM kinases” (Syros Pharmaceuticals, Inc., priority 2017, dated 2021).
pIC50: −log10 of the molar value.

Tests used:
AXL = molecular target: T1, AXL (Homo sapiens, UniProt P30530); assay: TR-FRET kinase activity assay, AXL; assay type: biochemical; settings: ATP at Km, 60 minutes
T1 sequence (P30530 26-894): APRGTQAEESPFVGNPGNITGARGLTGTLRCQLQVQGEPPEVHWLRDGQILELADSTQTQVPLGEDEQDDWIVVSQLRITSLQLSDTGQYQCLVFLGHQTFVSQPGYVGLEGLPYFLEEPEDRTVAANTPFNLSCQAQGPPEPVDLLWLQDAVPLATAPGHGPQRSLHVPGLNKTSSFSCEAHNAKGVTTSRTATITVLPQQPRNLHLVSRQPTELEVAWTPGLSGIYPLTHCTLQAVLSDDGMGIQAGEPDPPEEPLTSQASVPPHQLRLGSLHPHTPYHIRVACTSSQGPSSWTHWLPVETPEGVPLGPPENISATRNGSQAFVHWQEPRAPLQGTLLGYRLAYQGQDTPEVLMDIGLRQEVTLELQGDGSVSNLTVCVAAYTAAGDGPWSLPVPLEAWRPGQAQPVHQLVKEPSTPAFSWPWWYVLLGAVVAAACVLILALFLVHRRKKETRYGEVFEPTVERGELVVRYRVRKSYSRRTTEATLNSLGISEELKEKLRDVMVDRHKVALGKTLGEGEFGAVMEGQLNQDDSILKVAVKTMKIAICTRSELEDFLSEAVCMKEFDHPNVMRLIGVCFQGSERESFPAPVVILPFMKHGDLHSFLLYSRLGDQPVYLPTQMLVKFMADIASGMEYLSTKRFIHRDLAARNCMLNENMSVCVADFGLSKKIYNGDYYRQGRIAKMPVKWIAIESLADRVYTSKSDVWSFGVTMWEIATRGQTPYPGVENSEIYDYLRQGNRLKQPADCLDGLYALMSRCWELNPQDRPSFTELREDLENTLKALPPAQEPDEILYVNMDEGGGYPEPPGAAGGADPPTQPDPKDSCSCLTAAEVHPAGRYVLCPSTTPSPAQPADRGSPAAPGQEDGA
Outline: (§1)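 Recombinant human kinases, fluorescent peptide substrate, ATP at Km; 1 h RT, pH 7.5. EDTA-quenched, Eu antibody added, TR-FRET read; IC50 determined.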

TYRO3 = molecular target: T2, TYRO3 (Homo sapiens, UniProt Q06418); assay: TR-FRET kinase activity assay, TYRO3; assay type: biochemical; settings: ATP at Km, 60 minutes
T2 sequence (Q06418 41-890): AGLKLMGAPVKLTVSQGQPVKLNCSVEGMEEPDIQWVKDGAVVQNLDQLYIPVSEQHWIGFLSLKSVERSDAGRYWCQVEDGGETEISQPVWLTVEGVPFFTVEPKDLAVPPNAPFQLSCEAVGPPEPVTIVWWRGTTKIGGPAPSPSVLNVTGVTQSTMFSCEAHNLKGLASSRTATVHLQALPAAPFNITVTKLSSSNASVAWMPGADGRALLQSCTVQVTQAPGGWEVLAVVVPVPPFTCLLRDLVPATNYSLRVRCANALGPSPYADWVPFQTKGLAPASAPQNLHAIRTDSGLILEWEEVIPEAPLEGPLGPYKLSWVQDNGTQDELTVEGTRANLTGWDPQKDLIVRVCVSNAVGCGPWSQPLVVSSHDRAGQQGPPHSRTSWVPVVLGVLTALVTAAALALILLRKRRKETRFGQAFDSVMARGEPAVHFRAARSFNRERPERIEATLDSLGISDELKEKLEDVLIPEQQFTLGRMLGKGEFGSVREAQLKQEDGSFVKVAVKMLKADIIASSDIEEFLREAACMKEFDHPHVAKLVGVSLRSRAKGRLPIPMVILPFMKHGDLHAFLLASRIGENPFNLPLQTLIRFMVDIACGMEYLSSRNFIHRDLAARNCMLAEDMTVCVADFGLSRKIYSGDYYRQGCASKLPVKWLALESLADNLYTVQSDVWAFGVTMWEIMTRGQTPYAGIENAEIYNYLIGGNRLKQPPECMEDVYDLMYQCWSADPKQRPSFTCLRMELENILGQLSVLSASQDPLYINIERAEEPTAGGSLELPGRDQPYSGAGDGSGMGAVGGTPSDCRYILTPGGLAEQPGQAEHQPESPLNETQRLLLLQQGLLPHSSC
Outline: as §1

| Structure (SMILES) | pIC50 (AXL) | pIC50 (TYRO3) |
| --- | --- | --- |
| COCC(C)Nc1ncc2c(-c3cnn(C4COC4)c3)cc(C3CCNC(=O)C3)n2n1 (mixture of isomers) [Compound 592] | 5.00 to 6.00 | ≥ 7.00 |
| CC(COc1ccccc1)Nc1ncc2c(-c3cnn(C4COC4)c3)cc([C@H]3CC[C@H](O)CC3)n2n1 (mixture of isomers) [Compound 528] | ≥ 7.00 | ≥ 7.00 |
| CC(Cc1ccc(F)cc1)Nc1ncc2c(-c3cnn(C4COC4)c3)cc(C3CCC(O)CC3)n2n1 (racemic) [Compound 535] | ≥ 7.00 | ≥ 7.00 |
| CC(Nc1ncc2c(-c3cnn(C4COC4)c3)cc(C3CCC(O)CC3)n2n1)c1cccnc1 (racemic) [Compound 536] | 6.00 to 7.00 | ≥ 7.00 |
| CC[C@H](C)Nc1ncc2c(C3CCNCC3)cc([C@H]3CC[C@H](O)CC3)n2n1 [Compound 135, (trans)-4-(2-((S)-sec-butylamino)-5-(piperidin-4-yl)pyrrolo[2,1-f][1,2,4]triazin-7-yl)cyclohexanol] | ≥ 7.00 | ≥ 7.00 |
| CC[C@H](C)Nc1ncc2c(C3CCN(c4nccc(C)n4)CC3)cc([C@H]3CC[C@H](O)CC3)n2n1 [Compound 136, (trans)-4-(2-((S)-sec-butylamino)-5-(1-(4-methylpyrimidin-2-yl)piperidin-4-yl)pyrrolo[2,1-f][1,2,4]triazin-7-yl)cyclohexanol] | 6.00 to 7.00 | 6.00 to 7.00 |
| CCCCC[C@H](C)Nc1ncc2c([C@H]3CC[C@@H](C(=O)N4CCS(=O)(=O)CC4)CC3)cc([C@H]3CC[C@H](O)CC3)n2n1 [Compound 137] | ≥ 7.00 | ≥ 7.00 |
| COC[C@H](C)Nc1ncc2c(-c3ccc(C(=O)O)cc3)cc([C@H]3CC[C@H](O)CC3)n2n1 [Compound 139] | ≥ 7.00 | ≥ 7.00 |
| COC[C@H](C)Nc1ncc2c(C3=CCOCC3)cc([C@H]3CC[C@H](O)CC3)n2n1 [Compound 141] | ≥ 7.00 | ≥ 7.00 |
| C[C@H](Nc1ncc2c(-c3cnn(C4COC4)c3)cc([C@H]3CC[C@H](O)CC3)n2n1)C(F)(F)F [Compound 510] | 6.00 to 7.00 | ≥ 7.00 |
| COC[C@H](C)Nc1ncc2c(-c3cnn(C4COC4)c3)cc(-c3cccc(O)c3)n2n1 [Compound 511] | 5.00 to 6.00 | ≥ 7.00 |
| C[C@@H](COC(F)F)Nc1ncc2c(-c3ccc(S(C)(=O)=O)nc3)cc([C@H]3CC[C@H](O)CC3)n2n1 [Compound 513] | ≥ 7.00 | ≥ 7.00 |
| COC[C@H](C)Nc1ncc2c(-c3cnn(C4COC4)c3)cc(C3CCC(F)(F)CC3)n2n1 [Compound 515] | 6.00 to 7.00 | ≥ 7.00 |
| COC[C@H](C)Nc1ncc2c(-c3cnn(C(C)(C)C(=O)N4CCCC5(COC5)C4)c3)cc([C@H]3CC[C@H](O)CC3)n2n1 [Compound 516] | ≥ 7.00 | ≥ 7.00 |
| Cc1nnc(C(C)(C)n2cc(-c3cc([C@H]4CC[C@H](O)CC4)n4nc(N[C@@H](C)COC(F)F)ncc34)cn2)o1 [Compound 517] | ≥ 7.00 | ≥ 7.00 |
| COC[C@H](C)Nc1ncc2c(-c3cnn(C4COC4)c3)cc(C3CCSCC3)n2n1 [Compound 522] | 6.00 to 7.00 | ≥ 7.00 |
| COC[C@H](C)Nc1ncc2c(-c3cnn(C4COC4)c3)cc(C3CCC(=O)NC3)n2n1 (some centres unmarked) [Compound 526] | 5.00 to 6.00 | ≥ 7.00 |
| C[C@@H](Nc1ncc2c(-c3cnn(C4COC4)c3)cc([C@H]3CC[C@H](O)CC3)n2n1)C(F)(F)F [Compound 527] | 6.00 to 7.00 | ≥ 7.00 |
| C[C@H](Nc1ncc2c(-c3cnn(C(C)(C)C(=O)N4CCOCC4)c3)cc([C@H]3CC[C@H](O)CC3)n2n1)C(F)(F)F [Compound 537] | ≥ 7.00 | ≥ 7.00 |
| COCC(C)Nc1ncc2c(-c3ccc4[nH]ccc4c3)cc(C3CCC(O)CC3)n2n1 (centres unmarked) [Compound 539] | 6.00 to 7.00 | ≥ 7.00 |
| C[C@@H](CC(F)(F)F)Nc1ncc2c(-c3ccc([S@](C)(=N)=O)nc3)cc([C@H]3CC[C@H](O)CC3)n2n1 [Compound 540] | ≥ 7.00 | ≥ 7.00 |
| C[C@@H](CC(F)(F)F)Nc1ncc2c(-c3ccc([S@@](C)(=N)=O)nc3)cc([C@H]3CC[C@H](O)CC3)n2n1 [Compound 541] | ≥ 7.00 | ≥ 7.00 |
| CC(Nc1ncc2c(-c3cnn(C4COC4)c3)cc(C3CCC(O)CC3)n2n1)c1ccccn1 (centres unmarked) [Compound 544] | 5.00 to 6.00 | ≥ 7.00 |
| COC[C@H](C)Nc1ncc2c(-c3cnn(C(C)(C)C(=O)N4CCOCC4)c3)cc([C@H]3CC[C@@H](O)CC3)n2n1 [Compound 547] | ≥ 7.00 | ≥ 7.00 |
| COCC(C)Nc1ncc2c(-c3cccc(-c4nnc(C)o4)c3)cc(C3CCC(O)CC3)n2n1 (centres unmarked) [Compound 551] | ≥ 7.00 | ≥ 7.00 |

Continued, values first:

| pIC50 (AXL) | pIC50 (TYRO3) | Structure (SMILES) |
| --- | --- | --- |
| 6.00 to 7.00 | ≥ 7.00 | CCOCC(C)Nc1ncc2c(-c3ccc(CN4CCN(C)CC4)cc3)cc(C3CCC(O)CC3)n2n1 (centres unmarked) [Compound 138] |
| ≥ 7.00 | ≥ 7.00 | COC[C@H](C)Nc1ncc2c(-c3ccc(CN4CCOCC4)cc3)cc([C@H]3CC[C@H](O)CC3)n2n1 [Compound 140] |
| ≥ 7.00 | ≥ 7.00 | COCC(C)Nc1ncc2c(-c3ccc(CN4CCCC4)cc3)cc(C3CCC(O)CC3)n2n1 (centres unmarked) [Compound 142] |
| ≥ 7.00 | ≥ 7.00 | COCC(C)Nc1ncc2c(-c3ccc(C(C)N4CCOCC4)cc3)cc(C3CCC(O)CC3)n2n1 (centres unmarked) [Compound 143] |
| ≥ 7.00 | ≥ 7.00 | COC[C@H](C)Nc1ncc2c(-c3ccnc(N4CCN(CC5COC5)CC4)c3)cc([C@H]3CC[C@H](O)CC3)n2n1 [Compound 512] |
| ≥ 7.00 | ≥ 7.00 | CCN(C(=O)N1CCN(c2cc(-c3cc([C@H]4CC[C@H](O)CC4)n4nc(N[C@@H](C)COC)ncc34)ccn2)CC1)C(C)C [Compound 514] |
| ≥ 7.00 | ≥ 7.00 | COC[C@H](C)Nc1ncc2c(-c3ccnc(N4CCc5cnn(C)c5C4)c3)cc([C@H]3CC[C@H](O)CC3)n2n1 [Compound 518] |
| ≥ 7.00 | ≥ 7.00 | COC[C@H](C)Nc1ncc2c(-c3ccc([S@](C)(=N)=O)nc3)cc([C@H]3CC[C@H](O)CC3)n2n1 [Compound 532] |
| ≥ 7.00 | ≥ 7.00 | COC[C@H](C)Nc1ncc2c(-c3ccc([S@@](C)(=N)=O)nc3)cc([C@H]3CC[C@H](O)CC3)n2n1 [Compound 533] |
| ≥ 7.00 | ≥ 7.00 | COC[C@H](C)Nc1ncc2c(-c3ccnc(N4CCOC(C(C)(C)O)C4)c3)cc([C@H]3CC[C@H](O)CC3)n2n1 (some centres unmarked) [Compound 534] |
| 6.00 to 7.00 | ≥ 7.00 | COCC(C)Nc1ncc2c(-c3ccc4cc[nH]c4c3)cc(C3CCC(O)CC3)n2n1 (centres unmarked) [Compound 538] |
| ≥ 7.00 | ≥ 7.00 | COC[C@H](C)Nc1ncc2c(-c3ccnc(N4CCOCC4)c3)cc([C@H]3CC[C@@H](O)CC3)n2n1 [Compound 546] |
| ≥ 7.00 | ≥ 7.00 | COC[C@H](C)Nc1ncc2c(-c3ccnc(N4CCOCC4)c3)cc([C@H]3CC[C@@](C)(O)CC3)n2n1 [Compound 548] |
| ≥ 7.00 | ≥ 7.00 | COC[C@H](C)Nc1ncc2c(-c3ccnc(N4CCOCC4)c3)cc([C@H]3CC[C@](C)(O)CC3)n2n1 [Compound 549] |
| ≥ 7.00 | ≥ 7.00 | COCC(C)Nc1ncc2c(-c3ccc4ocnc4c3)cc(C3CCC(O)CC3)n2n1 (centres unmarked) [Compound 550] |
